Experimental data reported in patent US10670605B2, “Cysteine reactive probes and uses thereof” (The Scripps Research Institute, priority 2015, dated 2020).

Tests used:
Test in all cases: Competitive isoTOP-ABPP in situ (fragment-treated cells)
Type in all cases: cell-based
Details in all cases: 200 μM, insitu, 231
[1] = target: T1, cysteines in MDA-MB-231 and Ramos cells (Homo sapiens, UniProt P10599)
T1 sequence (P10599 1-105): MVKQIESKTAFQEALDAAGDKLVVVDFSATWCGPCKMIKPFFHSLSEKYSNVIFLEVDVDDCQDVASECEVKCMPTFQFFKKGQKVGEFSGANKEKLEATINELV

[2] = target: T2, cysteines in MDA-MB-231 and Ramos cells (Homo sapiens, UniProt P42224)
T2 sequence (P42224 1-750): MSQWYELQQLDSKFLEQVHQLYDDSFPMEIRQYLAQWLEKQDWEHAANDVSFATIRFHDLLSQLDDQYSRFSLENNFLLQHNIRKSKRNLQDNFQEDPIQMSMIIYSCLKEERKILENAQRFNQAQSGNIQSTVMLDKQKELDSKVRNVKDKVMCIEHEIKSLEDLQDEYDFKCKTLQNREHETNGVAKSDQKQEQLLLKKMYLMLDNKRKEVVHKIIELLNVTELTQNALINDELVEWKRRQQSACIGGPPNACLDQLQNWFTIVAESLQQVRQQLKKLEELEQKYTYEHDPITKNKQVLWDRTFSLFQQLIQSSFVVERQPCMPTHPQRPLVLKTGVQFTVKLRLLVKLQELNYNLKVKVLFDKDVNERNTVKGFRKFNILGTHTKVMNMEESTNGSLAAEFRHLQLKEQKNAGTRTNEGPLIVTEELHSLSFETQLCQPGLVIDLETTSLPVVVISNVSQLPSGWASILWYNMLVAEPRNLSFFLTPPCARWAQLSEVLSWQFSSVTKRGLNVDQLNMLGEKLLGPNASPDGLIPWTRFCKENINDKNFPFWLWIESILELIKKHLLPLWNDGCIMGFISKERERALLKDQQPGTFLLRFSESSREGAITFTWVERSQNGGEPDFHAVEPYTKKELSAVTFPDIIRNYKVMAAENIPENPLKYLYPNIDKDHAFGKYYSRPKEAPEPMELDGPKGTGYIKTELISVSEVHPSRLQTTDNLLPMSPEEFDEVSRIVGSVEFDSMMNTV

[3] = target: T3, cysteines in MDA-MB-231 and Ramos cells (Homo sapiens, UniProt P51946)
T3 sequence (P51946 1-323): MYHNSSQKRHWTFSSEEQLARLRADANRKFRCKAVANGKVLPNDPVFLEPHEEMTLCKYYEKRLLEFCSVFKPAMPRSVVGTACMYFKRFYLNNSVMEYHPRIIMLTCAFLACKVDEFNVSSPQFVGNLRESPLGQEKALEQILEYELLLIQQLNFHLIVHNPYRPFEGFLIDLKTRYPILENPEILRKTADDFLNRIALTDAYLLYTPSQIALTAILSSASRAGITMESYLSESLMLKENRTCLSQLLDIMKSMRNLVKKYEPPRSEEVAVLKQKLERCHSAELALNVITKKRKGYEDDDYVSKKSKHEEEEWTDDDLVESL

[4] = target: cysteines in MDA-MB-231 and Ramos cells (Homo sapiens, UniProt P62888)
[5] = target: cysteines in MDA-MB-231 and Ramos cells (Homo sapiens, UniProt Q16831)
cysteines in MDA-MB-231 and Ramos cells (Homo sapiens, UniProt Q16831), sequence (Q16831 whole entry): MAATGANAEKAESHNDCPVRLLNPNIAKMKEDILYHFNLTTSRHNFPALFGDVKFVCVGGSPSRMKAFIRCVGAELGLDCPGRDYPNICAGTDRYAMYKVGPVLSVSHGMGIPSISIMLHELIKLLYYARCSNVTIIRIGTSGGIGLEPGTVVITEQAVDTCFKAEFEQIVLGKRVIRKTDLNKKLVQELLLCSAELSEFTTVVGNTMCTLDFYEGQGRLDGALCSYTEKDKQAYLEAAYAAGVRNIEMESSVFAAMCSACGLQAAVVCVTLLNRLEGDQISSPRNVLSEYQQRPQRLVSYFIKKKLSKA

[6] = target: T4, cysteines in MDA-MB-231 and Ramos cells (Homo sapiens, UniProt Q96CM8)
T4 sequence (Q96CM8 42-615): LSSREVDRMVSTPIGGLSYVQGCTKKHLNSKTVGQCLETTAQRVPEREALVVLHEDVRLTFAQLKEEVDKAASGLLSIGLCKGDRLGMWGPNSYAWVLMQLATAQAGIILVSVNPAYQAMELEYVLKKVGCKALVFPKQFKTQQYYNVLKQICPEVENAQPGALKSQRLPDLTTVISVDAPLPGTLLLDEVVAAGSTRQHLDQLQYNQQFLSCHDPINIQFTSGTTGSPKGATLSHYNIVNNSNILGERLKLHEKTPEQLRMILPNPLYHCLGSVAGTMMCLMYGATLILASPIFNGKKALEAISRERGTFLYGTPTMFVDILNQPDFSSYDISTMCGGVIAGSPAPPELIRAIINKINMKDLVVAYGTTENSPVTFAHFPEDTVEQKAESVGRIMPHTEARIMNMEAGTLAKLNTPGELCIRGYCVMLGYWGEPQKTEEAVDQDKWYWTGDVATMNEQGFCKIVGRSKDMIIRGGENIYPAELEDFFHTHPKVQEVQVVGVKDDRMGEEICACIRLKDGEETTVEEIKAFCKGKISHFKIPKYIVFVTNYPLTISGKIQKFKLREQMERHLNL

[7] = target: T5, cysteines in MDA-MB-231 and Ramos cells (Homo sapiens, UniProt Q9HAV7)
T5 sequence (Q9HAV7 28-217): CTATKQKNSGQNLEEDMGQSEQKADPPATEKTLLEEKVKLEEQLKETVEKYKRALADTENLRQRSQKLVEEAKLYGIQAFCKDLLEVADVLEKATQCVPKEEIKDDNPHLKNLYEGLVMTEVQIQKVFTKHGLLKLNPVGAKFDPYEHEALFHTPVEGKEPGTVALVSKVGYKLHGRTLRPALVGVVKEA

[8] = target: T6, cysteines in MDA-MB-231 and Ramos cells (Homo sapiens, UniProt Q9NQR4)
T6 sequence (Q9NQR4 1-276): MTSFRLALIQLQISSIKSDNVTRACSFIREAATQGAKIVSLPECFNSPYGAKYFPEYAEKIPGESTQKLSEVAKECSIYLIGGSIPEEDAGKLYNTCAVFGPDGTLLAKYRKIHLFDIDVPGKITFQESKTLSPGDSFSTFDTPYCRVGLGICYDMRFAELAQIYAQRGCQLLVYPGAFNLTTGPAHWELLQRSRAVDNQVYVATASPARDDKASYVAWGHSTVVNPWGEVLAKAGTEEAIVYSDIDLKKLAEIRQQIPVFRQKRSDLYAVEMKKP

Row | SMILES | isoTOP-ABPP ratio P10599_C32 [1] | isoTOP-ABPP ratio P42224_C492 [2] | isoTOP-ABPP ratio P51946_C244 [3] | isoTOP-ABPP ratio P62888_C92 [4] | isoTOP-ABPP ratio Q16831_C162 [5] | isoTOP-ABPP ratio Q96CM8_C64 [6] | isoTOP-ABPP ratio Q9HAV7_C124 [7] | isoTOP-ABPP ratio Q9NQR4_C153 [8]
1 | O=C(CCl)NC(=O)NC12CC3CC(CC(C3)C1)C2 [compound 12] | 20.0 | 1.0 | 1.3 | 1.1 | 0.9 | 17.9 | 1.1 | 0.9
2 | O=C(CCl)NC12CC3CC(CC(C3)C1)C2 [compound 21] | 3.9 | 0.7 | 1.4 | 0.9 | 1.6 | 2.0 | 1.7 | 0.9
3 | Cc1ccc(C=C(C#N)C(=O)NCCN2CCOCC2)cc1 [compound 41] | 0.4 | 0.6 | 1.2 | 0.8 | 0.8 | 0.8 | 0.6 | 0.7
4 | CC1CCc2ccccc2N1C(=O)CCl (centres unmarked) [compound 45] | 5.7 | 20.0 | 2.4 | 2.2 | 1.3 | 20.0 | 2.1 | 2.0
